Each structure is given as a SMILES string.

The values below come from patent publication US20220064167A1, “IMIDAZO-PYRAZOLE CARBOXAMIDE DERIVATIVES AS ANTICANCER AGENTS AND THE SYNTHESIS THEREOF” (AVIDIN KFT., priority 2018, published 2022).

One experiment relates to HL-60 cells. As to the kind of experiment: resazurin viability assay, Example 103 (FIG. 1). The class given is cell-based. As to conditions: Homo sapiens, 72 h incubation, 20.000 cells/well, read-out: half-inhibitory concentration (IC50) on viability of HL-60 cells. Here is the method: The human primary fibroblasts (6000 cells/well) and Hl60 cells (20.000 cells/well) were seeded into 96-well plates (Corning Life Sciences) in media. Fibroblasts were cultured overnight before treatment. Effects of compounds described in Example 22, 60 and 83 were examined in concentrations of 1 μM, 250 nM, 62.5 nM, 15.6 nM, 3.9 nM and 0.9 nM in 100 μl after 72 h incubation. Resazurin reagent was prepared and used as described in Example 1.
Viability was calculated with relation to untreated control cells and blank wells containing media without cells. IC50 values (50% inhibiting concentration) were calculated by GraphPad Prism® 5.
(The colour change of resazurin is a common sign of viable cells or microbes.)

In a further experiment the test system is Bcl-xl in HL-60 cells. As to the kind of experiment: flow cytometry of Bcl-xl bright cells (FIG. 2A). The class given is cell-based, human. As to conditions: HL-60, 40 nM, 200 nM and 1 μM, 24 h. Here is the method: (§1) Human promyelocytic leukemia HL60 Cells (500,000/well) were plated in 24-well tissue culture plates (Corning Life Sciences) in RPMI 10% FCS (Gibco) and were treated with the compounds described in Example 60 and 83 at 40 nM, 200 nM and 1 μM concentrations in 500 μl media. After 24 h incubation time cells with the corresponding supernatants were harvested and centrifuged down (2000 rpm, 5 min).
(§2) Pellets were resuspended and fixed in 3.5% PBS buffered formaldehyde (Molar Chemicals) for 10 minutes. Cells were washed with FACS-buffer (2% FCS, (Gibco) in PBS), centrifuged down (2000 rpm, 5 min). Cells were permeabilized in Permeability buffer (1% FCS, 0.1% saponin (Sigma-Aldrich) in PBS pH 7.4) for 5 minutes. Cells were washed with FACS buffer (2% FCS, (Gibco) in PBS), centrifuged (2000 rpm, 5 min). The following primary antibodies were used: Bcl-xl-Alexa 488, (Cell Signaling, cat. numb. 2767S), dilution 1:75, 24 h; pAkt-Alexa Fluor 488, (Ser473), (Cell Signaling, cat. numb, 4071), dilution 1:50, 24 or 72h; After incubation for 1h at 4° C. samples were washed two times with FACS buffer. […] In order to calculate the signal to noise ratio mean fluorescent intensity (MFI) was calculated by the following equation: =POWER(10; (Medianstained−Median unstained, untreated)/Chd), where Chd means 256, the number of channels per decade (Fajka-Boja et al. 2002; Sharrow 2001) in Microsoft Excel. […]

Experiment [1] has as its system pAkt (Ser473) in HL-60 cells. As to the kind of experiment: flow cytometry of pAkt bright cells (FIG. 2B). The class given is cell-based, human. As to conditions: HL-60, 40 nM, 200 nM and 1 μM. Here is the method:
as §1, §2
(In general: Flow cytometry measures light scatter and fluorescence of single cells or particles in a stream.)

Experiment [2] concerns active caspase-3 in HL-60 cells. As to the kind of experiment: caspase-3 activation by flow cytometric immunofluorescence (FIG. 5). The following applies: HL-60, FIG. 5. The class given is cell-based, human. Here is the method: as §1, §2
Experiment [3] has as its system A549 (human lung adenocarcinoma). Description: viability assay (Table 2). The class given is cell-based. Here is the method: (§3) For viability assays cells were seeded in 96 well plates (MCF7 and 4T1: 6000, HL60: 120.000 cells/well) and incubated overnight. Compounds were dissolved in dimethyl sulfoxide (DMSO). Cells were treated with an increasing concentration of compounds having the general formula (I.) (156 nM-100 μM). Cell viability was determined after 72h incubation. Resazurin reagent (Sigma-Aldrich) was dissolved in PBS (pH 7.4) at 0.15 mg/ml concentration, sterile filtered (0.22 μm, Merck Millipore) and aliquoted at −20° C. Resazurin reagent (Sigma-Aldrich) was added at a final concentration of 25 μg/ml. After 2 hours incubation at 37° C. 5% CO2 fluorescence (530 nm excitation/580 nm emission) was recorded on a multimode microplate reader (Cytofluor4000, PerSeptive Biosytems). Viability was calculated with relation to untreated control cells and blank wells containing media without cells. IC50 values (50% inhibiting concentration) were calculated by GraphPad Prism® 5 (La Jolla, Calif., USA).
(§4) GBM2 (human glioblastoma), HeLa (human cervical carcinoma), MIA PaCa-2 (human pancreas carcinoma) and U87MG (human glioblastoma) cells were maintained in Dulbecco's Modified Eagle Medium (DMEM) 10% fetal calf serum (FCS, Gibco). A375 (human melanoma), A549 (human lung adenocarcinoma) and HEP3B (human hepatoma) cells were maintained in Dulbecco's Modified Eagle Medium/Nutrient Mixture F-12 (DMEM/F12) 10% FCS.
(§5) Media were supplemented with 2 mM GlutaMAX, and 100 U/mL penicillin, 100 μg/mL streptomycin (Life Technologies, Carlsbad, Calif., USA). Cell cultures were maintained at 37° C. in a humidified incubator in an atmosphere of 5% CO2 (Sanyo, Japan).
(§6) Viability assays were performed as described in Example 102.

Experiment [4] relates to GBM2 (human glioblastoma). Description: viability assay (Table 2). The class given is cell-based. Here is the method: as §3, §4, §5, §6
The subject of experiment [5] is MIA PaCa-2 (human pancreas carcinoma). Description: viability assay (Table 2). The class given is cell-based. Here is the method:
as §3, §4, §5, §6

The next experiment deals with HT168 (human melanoma). Description: viability assay (Table 2). The class given is cell-based. Here is the method:
as §3
(§7) HT168 (human melanoma), HT199 (human melanoma), HT29 (human colorectal adenocarcinoma), MOLT4 (human leukemia) and U937 (human lymphoma) cells were maintained in Roswell Park Memorial Institute 1640 medium (RPMI-1640) 10% FCS. SKOV-3 cells were maintained in Dulbecco's Modified Eagle Medium/McCoy's medium (DMEM/McCoy) 10% FCS.
as §5, §6

The next experiment has as its system HT199 (human melanoma). As to the kind of experiment: viability assay (Table 2). The class given is cell-based. Here is the method: as §3, §7, §5, §6
Experiment [6] deals with HT29 (human colorectal adenocarcinoma). As to the kind of experiment: viability assay (Table 2). The class given is cell-based. The following applies: HT-29. Here is the method:
as §3, §7, §5, §6

In the case of `CC(C)(C)Nc1c(C(C)(C)C)[nH]c2c(C(=O)Nc3ccc(N)cc3)cnn12` [Example 83, N-(4-Aminophenyl)-2-(tert-butyl)-3-(tert-butylamino)-1H-imidazo[1,2-b]pyrazole-7-carboxamide], the IC50 in the experiment with HL-60 cells amounted to 50 nM; in [3] it was 300 nM; in experiment [4], 100 nM; in [5] it was 300 nM; in the experiment with HT168 (human melanoma), 100 nM; in the experiment on HT199 (human melanoma) it was 100 nM. The same compound gave an IC50 in experiment [6] of 50 nM. In the experiment with Bcl-xl in HL-60 cells, the “percentage of the Bcl-xl bright cells” value is “increase”. In addition, the “percentage of the pAkt bright cells” value in experiment [1] was “increase”. Further, the “percentage of active caspase-3 positive cells” value in experiment [2] is “increased”.
As to `CC(C)(C)Nc1c(C(C)(C)C)[nH]c2c(C(=O)Nc3ccc(F)cc3)cnn12` [Example 60, 2-(Tert-butyl)-N-(4-fluorophenyl)-3-((tert-butyl-2-yl)amino)-1H-imidazo[1,2-b]pyrazole-7-carboxamide], the IC50 in the experiment with HL-60 cells was 210 nM; in experiment [3], 750 nM; in experiment [4] it was 250 nM; in [5] it was 300 nM; in the experiment with HT168 (human melanoma), 500 nM; in the experiment with HT199 (human melanoma), 300 nM. Further, in experiment [6], the IC50 amounted to 250 nM. Also, in the experiment on Bcl-xl in HL-60 cells, the “percentage of the Bcl-xl bright cells” value is “increase”. In addition, the “percentage of the pAkt bright cells” value in experiment [1] is on record as “increase”. The “percentage of active caspase-3 positive cells” value in experiment [2] is recorded as “increased”.
